The values that follow come from patent US9227971B2, “Pyrazolo[1,5-a]pyrimidine compounds as mTOR inhibitors” (Merck Sharp & Dohme Corp., priority 2010, dated 2016).

pIC50: −log10 of the molar value. Read-outs that look alike come from different tables or passages of the source.

In test [1] the test system is phosphorylated AKT Ser473 (pAKT S473), mTORC2 activity, PC3 cells. Kind of test: mTOR target engagement assay, immunofluorescent cell-based, pAKT S473 readout (mTORC2 activity). Put shortly: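 After blocking, cells were stained overnight at 4 °C with anti-pAKT S473 antibody, then a fluorescent secondary; inhibition was read as reduced fluorescence intensity.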
The subject of test [2] is phosphorylated 4E-BP1 Thr37/46 (p4E-BP1 Thr37/46), mTORC1 activity, PC3 cells. Kind of test: mTOR target engagement assay, immunofluorescent cell-based, p4E-BP1 Thr37/46 readout (mTORC1 activity). The settings on record: read-out: p4E-BP1 Thr37/46 IC50. Put shortly: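 Cell-based immunofluorescence in PC3 cells: serially diluted compounds (0.25% DMSO, 5% FBS) applied for ninety minutes at 37° C before fixation and overnight 4° C staining of p4E-BP1 Thr37/46. Untreated DMSO wells set maximal phosphorylation; IC50 obtained by logistic fitting.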

Setting [3] is: Homo sapiens, PC-3, PC3 cells, compound treatment ninety minutes at 37° C.
Setting [4] is: Homo sapiens, PC-3, Table 3-1, PC3 cells.
The mark [5] stands for this setting: Homo sapiens, PC-3, Table 6-1, PC3 cells.

Consider `CC(=O)c1c([C@@H]2C[C@H]3CC[C@@H](C2)N3C(=O)c2nnc[nH]2)nc2c(-c3ccc(-c4ccc5nc[nH]c5c4)nc3)cnn2c1N` [Compound 1.1.71, 1-(3-(6-(1H-benzo[d]imidazol-6-yl)pyridin-3-yl)-5-((1R,3s,5S)-8-(4H-1,2,4-triazole-3-carbonyl)-8-azabicyclo[3.2.1]octan-3-yl)-7-aminopyrazolo[1,5-a]pyrimidin-6-yl)ethanone], for which the pIC50 in test [1] (setting [3]) and in test [2] (setting [3]) was 6.00 to 7.00 each time.

On to `CS(=O)(=O)c1c([C@@H]2C[C@H]3CC[C@@H](C2)N3C(=O)CO)nc2c(-c3ccc(C(N)=O)c(F)c3)cnn2c1N` [Compound 3.156, 4-(7-amino-5-((1R,3a,5S)-8-(2-hydroxyacetyl)-8-azabicyclo[3.2.1]octan-3-yl)-6-(methylsulfonyl)pyrazolo[1,5-a]pyrimidin-3-yl)-2-fluorobenzamide], for which the pIC50 in test [1] (setting [4]) is less than 5.00; in test [2] (setting [4]) it was 5.00 to 6.00.

On to `CONC(=O)N1C2CC[C@@H]1C[C@@H](c1nc3c(-c4ccc(-c5ccccc5)nc4)cnn3c(N)c1S(C)(=O)=O)C2` [Compound 3.171, (1R,3s,5S)-3-(7-amino-6-(methylsulfonyl)-3-(6-phenylpyridin-3-yl)pyrazolo[1,5-a]pyrimidin-5-yl)-N-methoxy-8-azabicyclo[3.2.1]octane-8-carboxamide], for which the pIC50 in test [1] (setting [4]) and in test [2] (setting [4]) was 6.00 to 7.00 each time.

With `CC(=O)c1c([C@@H]2C[C@H]3CC[C@@H](C2)N3C(=O)c2cc(N)n[nH]2)nc2c(-c3ccc(-c4ccc(F)cc4)nc3)cnn2c1N` [Compound 1.1.156, 1-(7-amino-5-((1R,3s,5S)-8-(3-amino-1H-pyrazole-5-carbonyl)-8-azabicyclo[3.2.1]octan-3-yl)-3-(6-(4-fluorophenyl)pyridin-3-yl)pyrazolo[1,5-a]pyrimidin-6-yl)ethanone], the pIC50 in test [1] (setting [3]) and in test [2] (setting [3]) was 7.00 to 9.00 throughout.

Take `CS(=O)(=O)c1c([C@@H]2C[C@H]3CC[C@@H](C2)N3C=O)nc2c(-c3ccc(-c4ccccc4)nc3)cnn2c1N` [Compound 3.19, (1R,3s,5S)-3-(7-amino-6-(methylsulfonyl)-3-(6-phenylpyridin-3-yl)pyrazolo[1,5-a]pyrimidin-5-yl)-8-azabicyclo[3.2.1]octane-8-carbaldehyde]: the pIC50 in test [1] (setting [4]) and in test [2] (setting [4]) was 6.00 to 7.00 each time.

For the molecule `CC(=O)c1c([C@@H]2C[C@H]3CC[C@@H](C2)N3C(=O)CO)nc2c(-c3ccc(-c4cc[nH]n4)nc3)cnn2c1N` [Compound 1.1.75, 1-((1R,3s,5S)-3-(3-(6-(1H-pyrazol-3-yl)pyridin-3-yl)-6-acetyl-7-aminopyrazolo[1,5-a]pyrimidin-5-yl)-8-azabicyclo[3.2.1]octan-8-yl)-2-hydroxyethanone], the pIC50 in test [1] (setting [3]) and in test [2] (setting [3]) was 7.00 to 9.00 throughout.

`CS(=O)(=O)c1c([C@@H]2C[C@H]3CC[C@@H](C2)N3C(=O)c2cnn[nH]2)nc2c(-c3ccc(C4(O)CCC4)nc3)cnn2c1N` [Compound 7.30, ((1R,3s,5S)-3-(7-amino-3-(6-(1-hydroxycyclobutyl)pyridin-3-yl)-6-(methylsulfonyl)pyrazolo[1,5-a]pyrimidin-5-yl)-8-azabicyclo[3.2.1]octan-8-yl)(1H-1,2,3-triazol-5-yl)methanone]: the pIC50 in test [1] (Table 7-2, PC3 cells) is 6.00 to 7.00; in test [2] (Table 7-2, PC3 cells), 6.00 to 7.00.

Take `CC(=O)c1c([C@@H]2C[C@H]3CC[C@@H](C2)N3C(=O)C(C)(CO)CO)nc2c(-c3ccc(-c4ccn(C)n4)nc3)cnn2c1N` [Compound 1.1.56, 1-((1R,3s,5S)-3-(6-acetyl-7-amino-3-(6-(1-methyl-1H-pyrazol-3-yl)pyridin-3-yl)pyrazolo[1,5-a]pyrimidin-5-yl)-8-azabicyclo[3.2.1]octan-8-yl)-3-hydroxy-2-(hydroxymethyl)-2-methylpropan-1-one]: the pIC50 in test [1] (setting [3]) and in test [2] (setting [3]) was 6.00 to 7.00 in each case.

`[2H]C([2H])([2H])Oc1ccc(-c2ccc(-c3cnn4c(N)c(C(C)=O)c([C@@H]5C[C@H]6CC[C@@H](C5)N6C(=O)CO)nc34)cn2)cc1` [Compound 1.1.78, 1-((1R,3s,5S)-3-(6-acetyl-7-amino-3-(6-(4-methoxy-(D3)-phenyl)pyridin-3-yl)pyrazolo[1,5-a]pyrimidin-5-yl)-8-azabicyclo[3.2.1]octan-8-yl)-2-hydroxyethanone]: the pIC50 in test [1] (setting [3]) and in test [2] (setting [3]) was 7.00 to 9.00 throughout.

On to `CC(=O)c1c([C@@H]2C[C@H]3CC[C@@H](C2)N3C(=O)CO)nc2c(-c3ccc(-c4cccc(F)c4)nc3)cnn2c1N` [Compound 1.1.105, 1-((1R,3r,5S)-3-(6-acetyl-7-amino-3-(6-(3-fluorophenyl)pyridin-3-yl)pyrazolo[1,5-a]pyrimidin-5-yl)-8-azabicyclo[3.2.1]octan-8-yl)-2-hydroxyethanone], for which the pIC50 in test [1] (setting [3]) and in test [2] (setting [3]) was 6.00 to 7.00 each time.

Consider `COc1ccc(-c2ccc(-c3cnn4c(N)c(Br)c([C@@H]5C[C@H]6CC[C@@H](C5)N6C(=O)CO)nc34)cn2)cc1CO` [Compound 2.2, 1-((1R,3s,5S)-3-(7-amino-6-bromo-3-(6-(3-(hydroxymethyl)-4-methoxyphenyl)pyridin-3-yl)pyrazolo[1,5-a]pyrimidin-5-yl)-8-azabicyclo[3.2.1]octan-8-yl)-2-hydroxyethanone], for which the figures for the pIC50 in test [1] (setting [3]) and in test [2] (setting [3]) were 7.00 to 9.00 and 6.00 to 7.00, respectively.

Consider `N#Cc1c([C@@H]2C[C@H]3CC[C@@H](C2)N3C(=O)c2nc[nH]n2)nc2c(-c3ccc(-c4ccccc4)nc3)cnn2c1N` [Compound 5.2, 5-((1R,3s,5S)-8-(1H-1,2,4-triazole-3-carbonyl)-8-azabicyclo[3.2.1]octan-3-yl)-7-amino-3-(6-phenylpyridin-3-yl)pyrazolo[1,5-a]pyrimidine-6-carbonitrile], for which the pIC50 in test [1] (setting [3]) and in test [2] (setting [3]) was 7.00 to 9.00 throughout.

Consider `COc1ccc(-c2ccc(-c3cnn4c(N)c(C(C)=O)c([C@@H]5C[C@H]6CC[C@@H](C5)N6C(=O)CO)nc34)cn2)cc1F` [Compound 1.1.58, 1-((1R,3s,5S)-3-(6-acetyl-7-amino-3-(6-(3-fluoro-4-methoxyphenyl)pyridin-3-yl)pyrazolo[1,5-a]pyrimidin-5-yl)-8-azabicyclo[3.2.1]octan-8-yl)-2-hydroxyethanone], for which the pIC50 in test [1] (setting [3]) and in test [2] (setting [3]) was 6.00 to 7.00 in each case.

On to `Nc1c(C2CC2)c([C@@H]2C[C@H]3CC[C@@H](C2)N3C(=O)c2nnc[nH]2)nc2c(-c3ccc(-c4ncc[nH]4)nc3)cnn12` [Compound 6.2, ((1R,3s,5S)-3-(3-(6-(1H-imidazol-2-yl)pyridin-3-yl)-7-amino-6-cyclopropylpyrazolo [1,5-a]pyrimidin-5-yl)-8-azabicyclo[3.2.1]octan-8-yl)(4H-1,2,4-triazol-3-yl)methanone], for which the pIC50 in test [1] (setting [5]) and in test [2] (setting [5]) was 7.00 to 9.00 in each case.

Turning to `CC(=O)c1c([C@@H]2C[C@H]3CC[C@@H](C2)N3C(=O)CO)nc2c(-c3ccc(-n4cc(C)cn4)nc3)cnn2c1N` [Compound 1.1.134, 1-((1R,3s,5S)-3-(6-acetyl-7-amino-3-(6-(4-methyl-1H-pyrazol-1-yl)pyridin-3-yl)pyrazolo[1,5-a]pyrimidin-5-yl)-8-azabicyclo[3.2.1]octan-8-yl)-2-hydroxyethanone], the pIC50 in test [1] (setting [3]) was 7.00 to 9.00; in test [2] (setting [3]), 6.00 to 7.00.

As for `CCC(O)c1ccc(-c2cnn3c(N)c(C(C)=O)c([C@@H]4C[C@H]5CC[C@@H](C4)N5C(=O)c4nnc[nH]4)nc23)cn1` (some centres unmarked) [Compound 7.3], the figures for the pIC50 in test [1] (setting [3]) and in test [2] (setting [3]) were 7.00 to 9.00 and 6.00 to 7.00, respectively.

For the molecule `Nc1c(C2CC2)c([C@@H]2C[C@H]3CC[C@@H](C2)N3C(=O)CO)nc2c(-c3ccc(-c4cccc(F)c4)nc3)cnn12` [Compound 4.22, 1-((1R,3s,5S)-3-(7-amino-6-cyclopropyl-3-(6-(3-fluorophenyl)pyridin-3-yl)pyrazolo[1,5-a]pyrimidin-5-yl)-8-azabicyclo[3.2.1]octan-8-yl)-2-hydroxyethanone], the pIC50 in test [1] (setting [3]) and in test [2] (setting [3]) was 6.00 to 7.00 each time.

For the molecule `CS(=O)(=O)c1c([C@@H]2C[C@H]3CC[C@@H](C2)N3C(=O)c2nnc[nH]2)nc2c(-c3ccc(-c4ccc(C(F)(F)F)cc4F)nc3)cnn2c1N` [Compound 3.110, ((1R,3s,5S)-3-(7-amino-3-(6-(2-fluoro-4-(trifluoromethyl)phenyl)pyridin-3-yl)-6-(methylsulfonyl)pyrazolo[1,5-a]pyrimidin-5-yl)-8-azabicyclo[3.2.1]octan-8-yl)(4H-1,2,4-triazol-3-yl)methanone], the pIC50 in test [1] (setting [4]) is 6.00 to 7.00; in test [2] (setting [4]), 5.00 to 6.00.

Consider `CS(=O)(=O)c1c([C@H]2CC3CC[C@H](C2)N3C(=O)c2cn[nH]n2)nc2c(-c3ccc(-c4ccccc4F)nc3)cnn2c1N` [Compound 3.170, ((1R,3s,5S)-3-(7-amino-3-(6-(2-fluorophenyl)pyridin-3-yl)-6-(methylsulfonyl)pyrazolo[1,5-a]pyrimidin-5-yl)-8-azabicyclo[3.2.1]octan-8-yl)(2H-1,2,3-triazol-4-yl)methanone], for which the pIC50 in test [1] (setting [4]) and in test [2] (setting [4]) was 6.00 to 7.00 throughout.
